{"source": "patent US20190070183A1", "about": "“Targeting Casein Kinase-1 and PI3K/AKT/mTOR Pathways for Treatment of c-Myc-Overexpressing Cancers, Organ Transplant Associated Complications and Autoimmune Diseases” (The Trustees of Columbia University in the City of New York, priority 2015, published 2019)", "key": {"primary SLL cells": {"system": "primary SLL cells", "test": "Cytotoxicity in primary SLL cells (Cell Titer Glo)", "type": "cell-based, human", "details": "48 hours, 2.5, 5, and 7.5 nM"}, "[1]": {"system": "PI3K-AKT-mTOR-eIF4F-Myc signal cascade in LY10 cells", "details": "LY10, 24 h, PI3K inhibitors 3 μM, proteasome inhibitors 2 nM, single or combined"}, "primary AITL cells": {"system": "primary AITL cells", "test": "Cytotoxicity in primary AITL cells", "type": "cell-based, human", "protocol": "(§1) Blood from consented patients was drawn into 10 ml EDTA-vacutainers. Blood was mixed with PBS containing 2 mM EDTA and 0.5% BSA in a 1:2 Ratio Blood to PBS. Next fifteen milliliters of Ficoll-Paque Plus (GE Healthcare) was pipetted into 50 ml centrifuge tubes, with blood-PBS mixture layered on top. Tubes were centrifuged at 400×g for 40 min at room temperature with no brake. PBMC's in the buffy coat were collected by pipette and washed in EDTA-BSA PBS. Supernatant was removed and 10 ml ACK Lysis Buffer (Thermo Fisher) was used to remove Erythrocytes. Pellets were again washed in EDTA-BSA PBS, resuspended and counted via automated cell counter. Cytotoxicity and Western Blotting assays were performed according to protocol."}, "DLBCL cell line LY10": {"system": "DLBCL cell line LY10", "test": "Growth inhibition / viability of LY10 cells (CellTiter Glo), single agents and combinations, Bliss synergy", "type": "cell-based, human", "details": "LY10, 24 h, single agent"}, "CK1ε [2]": {"molecular_target": "T1, CK1ε (Homo sapiens, UniProt P49674)", "T1 sequence (P49674 whole entry)": "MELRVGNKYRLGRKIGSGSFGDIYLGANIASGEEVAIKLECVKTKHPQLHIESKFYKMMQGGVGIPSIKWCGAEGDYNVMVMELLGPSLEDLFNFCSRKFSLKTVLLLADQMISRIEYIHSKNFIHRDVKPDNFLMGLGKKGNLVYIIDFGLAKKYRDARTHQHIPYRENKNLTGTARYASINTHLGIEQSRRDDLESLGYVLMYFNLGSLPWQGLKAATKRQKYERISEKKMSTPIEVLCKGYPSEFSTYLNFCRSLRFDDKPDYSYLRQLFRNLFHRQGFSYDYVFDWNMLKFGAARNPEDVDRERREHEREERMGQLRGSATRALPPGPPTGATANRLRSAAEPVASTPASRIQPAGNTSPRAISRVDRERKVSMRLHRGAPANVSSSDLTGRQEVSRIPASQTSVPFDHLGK", "test": "CK1ε kinase activity assay (ADP-Glo, Promega)", "protocol": "CK1ε kinase activity was determined using the CK1ε enzyme system from Promega, according to the manufacturer's instruction. […] The luminescent signal positively correlates with ADP amount and kinase activity.\nNext, the CK1ε inhibiting activity of the above compounds was experimentally determined using the ADP-Glo™ Kinase Assay kit from Promega and recombinant CK1ε expressed by baculovirus in Sf9 insect cells."}, "CK1ε [3]": {"molecular_target": "T1, CK1ε", "test": "CK1ε autophosphorylation assay (calyculin A, Western blot)", "type": "cell-based", "design": "Full-length recombinant human CK1ε (CK1epsilon) was expressed by baculovirus in Sf9 insect cells; GST (N); purchased Promega; host or cells: Sf9 insect cells (baculovirus)"}, "Western blot, LY7 cells": {"test": "Western blot, LY7 cells", "type": "cell-based, human", "details": "LY7 and LY10, 24 h"}, "[4]": {"system": "phosphorylation of 4EBP1 and protein level of c-Myc in LY7 cells", "test": "Western blot, LY7 cells", "type": "cell-based, human", "details": "for expression of c-Myc at 24 h: single agents"}, "CK1ε [5]": {"molecular_target": "T1, CK1ε", "test": "Kinome profiling (Reaction Biology, radioisotope filter binding)", "details": "cell free, 1 μM", "protocol": "Kinome profiling was performed using the radioisotope filter binding assay from Reaction Biology."}, "patients with DLBCL [6]": {"system": "patients with DLBCL", "details": "9 patients; Westin 2014; cited from earlier work"}, "caspase 3/7": {"system": "caspase 3/7", "test": "Activation of caspase 3/7 in LY10", "type": "cell-based, human", "details": "LY10, 24 h", "source_text": "FIG. 3. […] FIG. 3L-N: PARP cleavage."}, "DLBCL cell line LY7": {"system": "DLBCL cell line LY7", "test": "LY7 viability (Cell Titer Glo)", "type": "cell-based, human", "details": "for activity inhibiting LY7 lymphoma cells (viability): 24 h, 10-50 μM, single agents"}, "[7]": {"system": "primary CLL and MCL cells", "test": "Cytotoxicity in primary CLL and MCL cells", "details": "48 hours", "protocol": "Pharmacological activities of PI3K and proteasome inhibitors in primary lymphoma cells. […] Cytotoxicity. Primary cells were isolated by ficoll gradient separation from three patients with SLL (FIG. 6A & FIG. 6B), CLL (FIG. 6C & FIG. 6D), MCL (FIG. 6E & FIG. 6F) respectively. The SLL cells were from pleural fluid, and the CLL and MCL cells were from peripheral blood. The cells were incubated with the experimental drugs as single agents and in combinations for 48 hours. The viability was determined by Cell Titer Glo, and presented as a function of each treatment conditions, as a percentage of the untreated control.\nas §1"}, "[8]": {"system": "cap dependent translation downstream of the 5′ UTR of c-MYC", "test": "Bicistronic luciferase reporter assay for c-Myc 5'UTR driven translation in LY7", "type": "cell-based, human", "details": "LY7 stably expressing reporter, 24 hr, 25 μM"}, "[9]": {"system": "phosphorylated AKT at Ser473", "test": "Inhibition of S473 p-AKT in serum-starved leukemia and lymphoma cell lines", "type": "cell-based, human", "details": "1 μM, 4 hours"}, "MOLT-4 cell line": {"system": "MOLT-4 cell line", "test": "Subcutaneous xenograft model of T-ALL (MOLT-4) in NOD/SCID mice", "type": "in vivo", "details": "daily oral 150 mg/kg, day 24, p<0.001"}, "patients with DLBCL [10]": {"system": "patients with DLBCL", "test": "Clinical trials in patients with DLBCL", "type": "in vivo, human"}}}
{"compound": "CC(C)C[C@H](NC(=O)[C@H](Cc1ccccc1)NC(=O)c1cnccn1)B(O)O", "note": "[Bortezomib, [(1R)-3-methyl-1-({(2S)-3-phenyl-2-[(pyrazin-2-ylcarbonyl)amino]propanoyl}amino)butyl]boronic acid]", "values": [{"measurement": "inhibition of primary cells", "setting": "primary SLL cells", "result": "10-80%"}, {"measurement": "inhibition of phosphorylation of 4EBP1", "setting": "[1]", "result": "marginal or no inhibition"}, {"measurement": "inhibition of phosphorylation of AKT", "setting": "[1]", "result": "comparable and modest inhibition"}, {"measurement": "single agent activity in AITL", "setting": "primary AITL cells", "result": "more potent than carfilzomib"}, {"measurement": "percentage of growth inhibition", "setting": "DLBCL cell line LY10; 1 to 3 nM", "result": "did not produce significant inhibition"}, {"measurement": "percentage of growth inhibition", "setting": "DLBCL cell line LY10; 4 to 8 nM", "result": "42-90%"}]}
{"compound": "CC(C)Oc1ccc(-c2nn([C@@H](C)c3nc4cccc(F)c4c(=O)n3-c3ccccc3)c3ncnc(N)c23)cc1F", "note": "[CUX-03173]", "values": [{"measurement": "IC50", "setting": "CK1ε [2]", "result": 9.4, "unit": "µM"}, {"measurement": "autophosphorylation of CK1ε", "setting": "CK1ε [3]; LY7, 15 μM, then calyculin A", "result": "inhibited"}, {"measurement": "beta-catenin level", "setting": "Western blot, LY7 cells", "result": "inhibited beta-catenin"}, {"measurement": "reduction of protein level of c-Myc", "setting": "[4]; LY7, 24 h", "result": "more effective than idelalisib and PF4800567"}, {"measurement": "inhibition of protein level of c-Myc", "setting": "[4]; LY7 and LY10, 24 h", "result": "as potent as TGR-1202"}]}
{"compound": "CC(C)C[C@H](NC(=O)[C@H](CCc1ccccc1)NC(=O)CN1CCOCC1)C(=O)N[C@@H](Cc1ccccc1)C(=O)N[C@@H](CC(C)C)C(=O)[C@@]1(C)CO1", "note": "[Carfilzomib, (S)-4-methyl-N—((S)-1-(((S)-4-methyl-1-((R)-2-methyloxiran-2-yl)-1-oxopentan-2-yl)amino)-1-oxo-3-phenylpropan-2-yl)-2-((S)-2-(2-morpholinoacetamido)-4-phenylbutanamido)pentanamide]", "values": [{"measurement": "inhibition of primary cells", "setting": "primary SLL cells", "result": "10-90%"}, {"measurement": "inhibition of phosphorylation of 4EBP1", "setting": "[1]", "result": "marginal or no inhibition"}, {"measurement": "inhibition of phosphorylation of AKT", "setting": "[1]", "result": "comparable and modest inhibition"}, {"measurement": "percentage of growth inhibition", "setting": "DLBCL cell line LY10; 1 to 2 nM", "result": "up to 35%"}]}
{"compound": "CC(Nc1ncnc2[nH]cnc12)c1cc2cccc(Cl)c2c(=O)n1-c1ccccc1", "note": "(stereo not drawn) [IPI-145]", "values": [{"measurement": "inhibition of kinase activity of CK1 epsilon", "setting": "CK1ε [5]", "result": "not observed"}]}
{"compound": "CC[C@H](Nc1ncnc2nc[nH]c12)c1nc2cccc(F)c2c(=O)n1-c1ccccc1", "note": "[Idelalisib]", "values": [{"measurement": "IC50", "setting": "CK1ε [2]", "result": "> 50", "unit": "µM"}, {"measurement": "responses in patients with DLBCL", "setting": "patients with DLBCL [6]", "result": "did not produce any responses"}, {"measurement": "inhibition of phosphorylation of 4EBP1", "setting": "[1]", "result": "moderately inhibit"}, {"measurement": "inhibition of phosphorylation of AKT", "setting": "[1]", "result": "more effective than TGR-1202"}, {"measurement": "effect on caspase activation caused by bortezomib", "setting": "caspase 3/7; 5 μM added to bortezomib", "result": "failed to augment"}, {"measurement": "inhibition of kinase activity of CK1 epsilon", "setting": "CK1ε [5]", "result": "not observed"}, {"measurement": "single agent activity in AITL", "setting": "primary AITL cells", "result": "more effective than TGR-1202"}, {"measurement": "suppression of phosphorylation of 4EBP1 and protein level of c-Myc", "setting": "[4]; LY7, 6 hours, 25-50 μM", "result": "only at the concentration of 50 μM"}, {"measurement": "expression of c-Myc at 24 h", "setting": "[4]; LY7, 24 h", "result": "rebounded"}, {"measurement": "activity inhibiting LY7 lymphoma cells (viability)", "setting": "DLBCL cell line LY7", "result": "only mild and comparable activity"}, {"measurement": "enhancement of cytotoxicity of bortezomib", "setting": "[7]", "result": "did not enhance"}]}
{"compound": "Nc1ncnc2c1c(COc1cccc(Cl)c1)nn2C1CCOCC1", "note": "[PF4800567]", "values": [{"measurement": "IC50", "setting": "CK1ε [2]", "result": 0.0074, "unit": "µM"}, {"measurement": "autophosphorylation of CK1ε (up-shifting of the CK1ε band)", "setting": "CK1ε [3]; LY7, 1 μM, 1 h pretreatment then calyculin A", "result": "no up-shifting"}, {"measurement": "suppression of phosphorylation of 4EBP1 and protein level of c-Myc", "setting": "[4]; LY7, 6 hours, 25-50 μM", "result": "only at the concentration of 50 μM"}, {"measurement": "phosphorylation of p70S6K1", "setting": "[4]; LY7, 24 h", "result": "substantially increased"}, {"measurement": "activity inhibiting LY7 lymphoma cells (viability)", "setting": "DLBCL cell line LY7", "result": "only mild and comparable activity"}, {"measurement": "reduction of ratio of LucR/LucF by 50%", "setting": "[8]", "result": "not"}]}
{"compound": "CC(C)n1nc(-c2cc3cc(O)ccc3[nH]2)c2c(N)ncnc21", "note": "[PP242]", "values": [{"measurement": "phosphorylation of p70S6K1", "setting": "[4]; LY7, 24 h", "result": "potently inhibited"}, {"measurement": "phosphorylation of 4EBP1 at S65", "setting": "[4]; LY7, 24 h, 750 nM", "result": "markedly inhibited"}, {"measurement": "level of c-Myc", "setting": "[4]; LY7, 24 h, PP242 treatment", "result": "moderately reduced"}]}
{"compound": "CC(C)Oc1ccc(-c2nn([C@@H](C)c3oc4ccc(F)cc4c(=O)c3-c3cccc(F)c3)c3ncnc(N)c23)cc1F", "note": "[TGR-1202]", "values": [{"measurement": "IC50", "setting": "CK1ε [2]", "result": 6, "unit": "µM"}, {"measurement": "reduction of phosphorylation of AKT (Ser473)", "setting": "[9]", "result": "43-87%"}, {"measurement": "inhibition of phosphorylation of 4EBP1", "setting": "[1]", "result": "moderately inhibit"}, {"measurement": "effect on caspase 3/7 activation by carfilzomib", "setting": "caspase 3/7; 1 μM added to carfilzomib", "result": "markedly enhanced"}, {"measurement": "tumor response in xenograft", "setting": "MOLT-4 cell line", "result": "significantly shrank the tumors"}, {"measurement": "beta-catenin level", "setting": "Western blot, LY7 cells", "result": "inhibited beta-catenin"}, {"measurement": "suppression of phosphorylation of 4EBP1 and protein level of c-Myc", "setting": "[4]; LY7, 6 h, 15-50 μM", "result": "more potent than idelalisib and PF4800567"}, {"measurement": "suppression of phosphorylation of 4EBP1 and protein level of c-Myc", "setting": "[4]; LY7, 6 hours, 25-50 μM", "result": "potently suppressed"}, {"measurement": "reduction of protein level of c-Myc", "setting": "[4]; LY7, 24 h", "result": "more effective than idelalisib and PF4800567"}, {"measurement": "inhibition of phosphorylation of 4EBP1 and protein level of c-Myc", "setting": "[4]; LY7, 24 h, 25 μM", "result": "highly effective"}, {"measurement": "expression of c-Myc at 24 h", "setting": "[4]; LY7, 24 h", "result": "not relieved"}, {"measurement": "activity inhibiting LY7 lymphoma cells (viability)", "setting": "DLBCL cell line LY7", "result": "significantly more effective than idelalisib and PF4800567"}, {"measurement": "potency in cytotoxicity assay", "setting": "DLBCL cell line LY7; LY7, 24 h", "result": "most potent among these compounds"}, {"measurement": "synergy with PP242 inhibiting phosphorylation of 4EBP1 at T70 and cell viability", "setting": "DLBCL cell line LY7; LY7, PP […], other drugs 5 and 15 μM", "result": "synergistic with PP242"}, {"measurement": "partial response in patients with DLBCL", "setting": "patients with DLBCL [10]", "result": "3 of 14"}]}
